The record followed here is patent US11111247B2, “Pyrazolopyrimidine compounds and uses thereof” (Incyte Corporation, priority 2018, dated 2021).

Structures are written as SMILES. Like-named read-outs stand apart in the source and are kept apart here.

The target in one experiment is FGFR1 (UP) (Homo sapiens (Human), UniProt P11362). In words: FGFR Enzymatic Assay, FGFR1 un-phosphorylated.
A further experiment concerns the target FGFR2 (P) (Homo sapiens (Human), UniProt P21802). Briefly: FGFR Enzymatic Assay, FGFR2 phosphorylated. Particulars: phosphorylated enzyme, ATP near or below Km.
The next experiment has as its target ALK2 (aa 147-end) (Homo sapiens (Human), UniProt Q04771). Briefly: ALK2 HTRF Assay. The format is biochemical. On the procedure:
The enzymatic assays were conducted in white 384-well polystyrene plates in a final volume of 8 μL. The inhibitors were serially diluted in DMSO and added to the plate wells prior to addition of the other reaction components. The assays were carried out at 25° C. in the assay buffer (50 mM HEPES, pH 7.1, 10% Glycerol, 0.01% Brij50, 10 mM MgCl2, 1 mM EGTA, 5 mM DTT, and 0.01% BSA), containing 50 nM LANCE Ultra ULight™-DNA Topoisomerase 2-alpha peptide (Perkin Elmer TRF0130), and 3 uM, 100 uM or 1 mM ATP (as specified). […] The reaction was read on a PHERAstar FS plate reader (BMG Labtech). IC50 determination was performed by fitting percent control activity versus the log of the inhibitor concentration using the IDBS XLFit and GraphPad Prism 5.0 software.

The subject of another experiment is RT112 cells. Briefly: Luminescent Viability Assay (LVA, FGFR3). The class given is cell-based. Particulars: Homo sapiens, RT-112, 72 h, 3 days, CellTiter-Glo. The protocol: RT112 cells were purchased from ATCC (Manassas, Va.) and maintained in RPMI, 10% FBS (Gibco/Life Technologies). To measure the effect of test compounds on the viability of cells, the cells were plated with RPMI 10% FBS (5×10^3 cells/well/in 50 μL) into black 96-well Greiner polystyrene in the presence or absence of 50 μl of a concentration range of test compounds. After 3 days, 100 μl of CellTiter-Glo Reagent (Promega) was added. Luminescence was read with a TopCount (PerkinElmer). IC50 determination was performed by fitting the curve of percent inhibition versus the log of the inhibitor concentration using the GraphPad Prism 5.0 software.

The next experiment deals with FGFR3 (UP) (Homo sapiens (Human), UniProt P22607). In words: FGFR Enzymatic Assay, FGFR3 un-phosphorylated. The conditions noted are these: read-out: FGFR3 (UP) IC50; un-phosphorylated enzyme, ATP near or below Km.
Sequence of FGFR3 (UP) (P22607 23-806): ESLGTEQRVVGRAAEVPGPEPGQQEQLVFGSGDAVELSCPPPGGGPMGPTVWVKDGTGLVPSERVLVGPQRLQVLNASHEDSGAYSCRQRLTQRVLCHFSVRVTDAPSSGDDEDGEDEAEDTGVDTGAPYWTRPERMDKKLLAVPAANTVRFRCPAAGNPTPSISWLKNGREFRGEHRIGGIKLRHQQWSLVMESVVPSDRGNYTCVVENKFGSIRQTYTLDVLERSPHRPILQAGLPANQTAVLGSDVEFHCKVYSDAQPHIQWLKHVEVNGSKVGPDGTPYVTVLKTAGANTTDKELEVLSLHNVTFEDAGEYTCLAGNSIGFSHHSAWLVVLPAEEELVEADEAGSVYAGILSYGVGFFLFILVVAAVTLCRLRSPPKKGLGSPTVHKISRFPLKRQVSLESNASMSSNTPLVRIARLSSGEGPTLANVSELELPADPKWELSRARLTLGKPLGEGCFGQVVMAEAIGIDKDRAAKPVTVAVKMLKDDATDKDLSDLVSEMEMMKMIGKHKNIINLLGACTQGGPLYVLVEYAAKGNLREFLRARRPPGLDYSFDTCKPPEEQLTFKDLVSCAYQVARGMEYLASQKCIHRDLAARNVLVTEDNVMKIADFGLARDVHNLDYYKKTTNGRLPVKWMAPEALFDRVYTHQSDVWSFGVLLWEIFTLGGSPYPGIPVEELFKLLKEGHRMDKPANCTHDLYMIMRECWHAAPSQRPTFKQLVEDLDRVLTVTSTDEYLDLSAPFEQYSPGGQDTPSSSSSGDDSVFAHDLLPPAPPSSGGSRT
[1] abbreviates: read-out: FGFR1 (UP) IC50, un-phosphorylated enzyme, ATP near or below Km.

Sequence of FGFR2 (P) (P21802 22-821): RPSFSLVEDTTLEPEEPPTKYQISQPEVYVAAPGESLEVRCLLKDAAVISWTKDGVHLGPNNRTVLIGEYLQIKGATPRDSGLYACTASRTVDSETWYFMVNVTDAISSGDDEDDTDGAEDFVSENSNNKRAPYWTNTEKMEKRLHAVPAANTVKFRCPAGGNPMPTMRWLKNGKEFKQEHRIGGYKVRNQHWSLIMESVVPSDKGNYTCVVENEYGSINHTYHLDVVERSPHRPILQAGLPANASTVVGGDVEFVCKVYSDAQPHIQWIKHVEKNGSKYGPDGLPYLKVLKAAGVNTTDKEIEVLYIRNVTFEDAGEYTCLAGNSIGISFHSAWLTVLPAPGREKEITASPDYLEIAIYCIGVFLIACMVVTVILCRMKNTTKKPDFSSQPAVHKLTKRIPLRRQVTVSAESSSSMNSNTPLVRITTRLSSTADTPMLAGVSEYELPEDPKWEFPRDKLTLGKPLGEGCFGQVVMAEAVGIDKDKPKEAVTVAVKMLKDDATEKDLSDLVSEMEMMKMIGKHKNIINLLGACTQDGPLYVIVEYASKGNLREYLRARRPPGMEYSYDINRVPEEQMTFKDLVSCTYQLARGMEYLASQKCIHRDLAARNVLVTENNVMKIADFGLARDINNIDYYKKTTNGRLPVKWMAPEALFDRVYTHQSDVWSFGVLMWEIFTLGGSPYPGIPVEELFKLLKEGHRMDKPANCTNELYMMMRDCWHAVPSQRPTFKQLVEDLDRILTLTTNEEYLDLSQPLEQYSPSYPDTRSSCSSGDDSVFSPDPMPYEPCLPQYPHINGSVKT
Sequence of ALK2 (aa 147-end) (Q04771 147-509): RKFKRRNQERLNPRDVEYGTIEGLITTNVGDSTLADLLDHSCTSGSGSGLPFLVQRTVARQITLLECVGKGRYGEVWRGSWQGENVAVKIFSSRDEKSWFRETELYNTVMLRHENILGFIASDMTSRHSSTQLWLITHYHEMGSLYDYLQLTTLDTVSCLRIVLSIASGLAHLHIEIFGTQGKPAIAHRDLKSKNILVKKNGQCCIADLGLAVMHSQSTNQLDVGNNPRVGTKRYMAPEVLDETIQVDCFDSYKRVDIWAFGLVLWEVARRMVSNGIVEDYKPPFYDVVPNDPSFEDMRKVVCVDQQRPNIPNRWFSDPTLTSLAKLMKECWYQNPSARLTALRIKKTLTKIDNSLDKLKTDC
Sequence of FGFR1 (UP) (P11362 22-822): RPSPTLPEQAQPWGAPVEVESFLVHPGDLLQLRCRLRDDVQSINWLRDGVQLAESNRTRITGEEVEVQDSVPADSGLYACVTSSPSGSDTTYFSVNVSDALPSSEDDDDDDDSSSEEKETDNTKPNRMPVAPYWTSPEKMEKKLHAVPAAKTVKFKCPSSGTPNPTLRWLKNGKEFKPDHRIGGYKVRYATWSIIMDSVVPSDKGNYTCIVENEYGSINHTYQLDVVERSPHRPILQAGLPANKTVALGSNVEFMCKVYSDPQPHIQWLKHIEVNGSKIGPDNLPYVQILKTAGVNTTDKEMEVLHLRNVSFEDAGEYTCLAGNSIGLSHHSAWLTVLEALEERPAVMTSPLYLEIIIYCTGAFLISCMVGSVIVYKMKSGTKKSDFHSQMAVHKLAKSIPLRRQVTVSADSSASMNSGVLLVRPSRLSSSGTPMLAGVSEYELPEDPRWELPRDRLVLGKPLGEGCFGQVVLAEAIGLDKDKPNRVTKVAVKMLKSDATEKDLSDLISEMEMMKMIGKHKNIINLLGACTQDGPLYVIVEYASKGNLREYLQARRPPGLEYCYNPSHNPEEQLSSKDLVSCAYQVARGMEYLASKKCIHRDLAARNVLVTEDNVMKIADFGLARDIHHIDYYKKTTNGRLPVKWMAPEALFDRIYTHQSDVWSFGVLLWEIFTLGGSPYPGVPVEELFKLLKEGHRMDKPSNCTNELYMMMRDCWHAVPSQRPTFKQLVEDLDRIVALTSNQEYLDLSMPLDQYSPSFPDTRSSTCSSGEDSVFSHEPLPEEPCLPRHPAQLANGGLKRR
Procedure for FGFR1 (UP): (§1) The inhibitor potency of the exemplified compounds was determined in an enzyme discontinuous assay that measures peptide phosphorylation using FRET measurements to detect product formation. Inhibitors were serially diluted in DMSO and a volume of 0.2 μL was transferred to the wells of a 384-well plate. For the isoforms of FGFR (−1, −2, −3 wild-type and mutant isoforms, −4) including phosphorylated (P) and un-phosphorylated (UP) proteins, a 5 μL/well volume of enzyme diluted in assay buffer (50 mM HEPES, 10 mM MgCl2, 1 mM EGTA, 0.01% Tween-20, 5 mM DTT, pH 7.5) was added to the plate and pre-incubated with inhibitor for 5 to 15 minutes at ambient temperature. Appropriate controls (enzyme blank and enzyme with no inhibitor) were included on the plate. The reaction was initiated by the addition of a 5 μL/well volume containing both biotinylated [sequence] […] The plate was allowed to equilibrate for −10 minutes at ambient temperature before scanning on a PheraStar plate reader (BMG Labtech) instrument.
(§2) Either GraphPad prism or XLfit was used to analyze the data. The IC50 values were derived by fitting the data to a four parameter logistic equation producing a sigmoidal dose-response curve with a variable Hill coefficient. Prism equation: Y=Bottom+(Top−Bottom)/(1+10^((LogIC50−X)*Hill slope)); XLfit equation: Y=(A+((B−A)/(1+((X/C)^D)))) where X is the logarithm of inhibitor concentration and Y is the response.
Procedure for FGFR2 (P): as §1, §2

As for `Cn1cc(-c2n[nH]c3cnc(N4C5CCC4C(=O)N(CCF)C5)nc23)cn1` (stereo not shown) [Example 51, 3-(2-Fluoroethyl)-8-(3-(1-methyl-1H-pyrazol-4-yl)-1H-pyrazolo[4,3-d]pyrimidin-5-yl)-3,8-diazabicyclo[3.2.1]octan-2-one], the IC50 against FGFR1 (UP) was 100 to 500 nM; against FGFR2 (P) (FGFR2 (P) IC50 (nM)), 100 to 500 nM; against ALK2 (aa 147-end) (ALK2 3 μM IC50, 3 uM ATP), 100 to 500 nM; at ALK2 (aa 147-end) (ALK2 100 μM IC50, 100 uM ATP), 500 to 2000 nM; in the experiment on RT112 cells, 500 to 2000 nM; at FGFR3 (UP), less than 100 nM.

Consider `CC(C)C(=O)N1CCC(n2cc(-c3n[nH]c4cnc(N5C6CCC5C(=O)N(C)C6)nc34)cn2)CC1` (stereo not shown) [Example 57, 8-(3-(1-(1-Isobutyrylpiperidin-4-yl)-1H-pyrazol-4-yl)-1H-pyrazolo[4,3-d]pyrimidin-5-yl)-3-methyl-3,8-diazabicyclo[3.2.1]octan-2-one], for which the IC50 against FGFR1 (UP) was 100 to 500 nM; on FGFR2 (P) (read-out: FGFR2 (P) IC50), less than 100 nM; at ALK2 (aa 147-end) (ALK2 3 μM IC50, 3 uM ATP), 500 to 2000 nM; against ALK2 (aa 147-end) (ALK2 100 μM IC50, 100 uM ATP) it was 500 to 2000 nM; in the experiment with RT112 cells, 500 to 2000 nM; on FGFR3 (UP), less than 100 nM.

As to `CN1CC2CCC(C1=O)N2c1ncc2[nH]nc(-c3cnn(-c4ccc5nccn5c4)c3)c2n1` (stereo not shown) [Example 75, 8-(3-(1-(Imidazo[1,2-a]pyridin-6-yl)-1H-pyrazol-4-yl)-1H-pyrazolo[4,3-d]pyrimidin-5-yl)-3-methyl-3,8-diazabicyclo[3.2.1]octan-2-one], the half-maximal inhibitory concentration (IC50) was less than 100 nM on FGFR1 (UP) (setting [1]); less than 100 nM on FGFR2 (P) (read-out: FGFR2 (P) IC50); 500 to 2000 nM at ALK2 (aa 147-end) (ALK2 3 μM IC50, 3 uM ATP); 500 to 2000 nM on ALK2 (aa 147-end) (ALK2 100 μM IC50, 100 uM ATP); 500 to 2000 nM in the experiment with RT112 cells; less than 100 nM at FGFR3 (UP).

For the compound `Cn1cc(-c2n[nH]c3cnc(N4CCc5cn[nH]c5C4)nc23)cn1` [Example 44, 3-(1-Methyl-1H-pyrazol-4-yl)-5-(1,4,5,7-tetrahydro-6H-pyrazolo[3,4-c]pyridin-6-yl)-1H-pyrazolo[4,3-d]pyrimidine], the IC50 against FGFR1 (UP) was 100 to 500 nM; at FGFR2 (P) (read-out: FGFR2 (P) IC50), less than 100 nM; on ALK2 (aa 147-end) (ALK2 3 μM IC50, 3 uM ATP) it was 500 to 2000 nM; against ALK2 (aa 147-end) (ALK2 100 μM IC50, 100 uM ATP), 500 to 2000 nM; with RT112 cells it was 500 to 2000 nM; at FGFR3 (UP) it was less than 100 nM.

Consider `Cn1cc(-c2n[nH]c3cnc(N4CCn5cnc(C(F)(F)F)c5C4)nc23)cn1` [Example 41, 3-(1-Methyl-1H-pyrazol-4-yl)-5-(1-(trifluoromethyl)-5,6-dihydroimidazo[1,5-a]pyrazin-7(8H)-yl)-1H-pyrazolo[4,3-d]pyrimidine], for which the half-inhibitory concentration (IC50) on FGFR1 (UP) was 100 to 500 nM; against FGFR2 (P) (FGFR2 (P) IC50 (nM)), 100 to 500 nM; at ALK2 (aa 147-end) (ALK2 3 μM IC50, 3 uM ATP), 500 to 2000 nM; on ALK2 (aa 147-end) (ALK2 100 μM IC50, 100 uM ATP), 500 to 2000 nM; in the experiment with RT112 cells it was 100 to 500 nM; at FGFR3 (UP), less than 100 nM.

`CN1CCN(c2ccc(-c3n[nH]c4cnc(N5C6CCC5C(=O)N(C)C6)nc34)cn2)CC1` (stereo not shown) [Example 60, 3-Methyl-8-(3-(6-(4-methylpiperazin-1-yl)pyridin-3-yl)-1H-pyrazolo[4,3-d]pyrimidin-5-yl)-3,8-diazabicyclo[3.2.1]octan-2-one]: the IC50 on FGFR1 (UP) (setting [1]) is less than 100 nM; at FGFR2 (P) (read-out: FGFR2 (P) IC50) it was less than 100 nM; on ALK2 (aa 147-end) (ALK2 100 μM IC50, 100 uM ATP) it was 500 to 2000 nM; at ALK2 (aa 147-end) (read-out: ALK2 3 μM IC50, 3 uM ATP), less than 100 nM; with RT112 cells, 100 to 500 nM; at FGFR3 (UP), less than 100 nM.

As to `CN1CC2CCC(C1=O)N2c1ncc2[nH]nc(-c3cnn(Cc4ccncc4)c3)c2n1` (stereo not shown) [Example 59, 3-Methyl-8-(3-(1-(pyridin-4-ylmethyl)-1H-pyrazol-4-yl)-1H-pyrazolo[4,3-d]pyrimidin-5-yl)-3,8-diazabicyclo[3.2.1]octan-2-one], the half-inhibitory concentration (IC50) on FGFR1 (UP) was 100 to 500 nM; on FGFR2 (P) (read-out: FGFR2 (P) IC50) it was less than 100 nM; against ALK2 (aa 147-end) (ALK2 3 μM IC50, 3 uM ATP) it was 500 to 2000 nM; at ALK2 (aa 147-end) (ALK2 100 μM IC50, 100 uM ATP) it was 500 to 2000 nM; in the experiment with RT112 cells, 500 to 2000 nM; on FGFR3 (UP) it was less than 100 nM.

On to `CC(C)N1CCN(c2ncc3[nH]nc(-c4cnn(C)c4)c3n2)C(C)C1=O` (stereo not shown) [Example 47, 1-Isopropyl-3-methyl-4-(3-(1-methyl-1H-pyrazol-4-yl)-1H-pyrazolo[4,3-d]pyrimidin-5-yl)piperazin-2-one], for which the IC50 against FGFR1 (UP) is 500 to 2000 nM; against FGFR2 (P) (FGFR2 (P) IC50 (nM)), 100 to 500 nM; in the experiment on RT112 cells it was 500 to 2000 nM; on FGFR3 (UP), less than 100 nM.
